Data as given in paper PMC8379256, “A xanthene derivative, DS20060511, attenuates glucose intolerance by inducing skeletal muscle-specific GLUT4 translocation in mice” (Communications Biology, 2021).
Several values for one entry are separate records, joined by “and”; a condition that tells them apart may be missing. Equal entries are not always repeated. Where two headings read alike, the source gives them in different places.

What was measured:
[1] = system: isolated soleus and EDL muscles; assay: [3H]-2-DG uptake in isolated soleus and EDL muscles from WT and GLUT4KO mice; design: species or system mouse; settings: for 2DOG Trn / IC 2DOG / 2-DG uptake Raio: DS20060511 10μM, individual muscles; for 2DOG Trn / IC 2DOG: 2DG 1 mM, incubation time 10 min; for 2-DG uptake Raio: ratio to vehicle
Experimental: Fig. 3 The glucose-lowering effect of DS20060511 is totally dependent on GLUT4. a Blood glucose and plasma insulin levels during oral GTT in wild-type (WT, n = 5) and GLUT4 knockout (KO, n = 6) mice. Mice received oral administration of vehicle or DS20060511 (30 mg kg^−1), 15 min prior to the glucose administration (1.5 g kg^−1). Values shown are means ± SEM. *P < 0.05, **P < 0.01 vs. vehicle by the t-test. b DS20060511-stimulated [^3H]-2-DG uptake in the isolated soleus and EDL muscles excised from WT (n = 6) and KO (n = 6) mice. Values shown are means ± SEM. **P < 0.01 vs. vehicle by the t-test.
The soleus or EDL muscle was removed from anesthetized mice (isoflurane anesthesia) that had been denied access to food overnight, and incubated with oxygenated (95% O2/5% CO2) Krebs-Henseleit Bicarbonate (KHB) buffer (118.1 mM NaCl, 4.7 mM KCl, 1.1 mM KH2PO4, 1.2 mM MgSO4, 2.5 mM CaCl2, and 25 mM NaHCO3, pH7.4) in the presence of 11.1 mM glucose at 37 °C. The muscle specimens were then treated with the indicated concentrations of the compounds in KHB buffer containing 11.1 mM glucose and 8 mM mannitol for 10 min at 37 °C. Thereafter, the muscles were rinsed with KHB buffer containing 8 mM mannitol and the compounds for 5 min at 37 °C. Lastly, the muscles were treated with the compounds in KHB buffer containing 1 mM 2-DG (with 0.3 μCi mL^−1 [^3H]-2-DG) and 8 mM mannitol (with 0.03 μCi mL^−1 [^14C]-mannitol) for 10 min at 37 °C. After the muscle specimens were washed, they were lysed with 1 N NaOH and neutralized with 1 N HCl. The ^14C- and ^3H-specific activities were counted with a liquid scintillation counter. The specific uptake of 2-DG was calculated by subtracting the nonspecific uptake of mannitol from the total 2-DG uptake. To investigate the effects of muscle contraction, muscle contraction was induced by electrical stimulation with 5 Hz (1 ms pulse duration, 100 V) for 10 min (SEN-5201, Nihon Koden, Tokyo, Japan).

[2] = Pharmacokinetics: plasma concentration after oral administration; assay type: in vivo, mouse; settings: for concentration at 0.5 hr / concentration at 1.25 hr / concentration at 2 hr / concentration at 4 hr / concentration at 6 hr: plasma, individual mice; for concentration at 0.5 hr: read-out: Conc. (µM) 0.5 hr; for concentration at 1.25 hr: read-out: Conc. (µM) 1.25 hr; for concentration at 2 hr: read-out: Conc. (µM) 2 hr; for concentration at 4 hr: read-out: Conc. (µM) 4 hr; for concentration at 6 hr: read-out: Conc. (µM) 6 hr; for maximal plasma concentration: at 30 min
Experimental: C57BL/6 mice that had been denied access to food overnight received the indicated oral dose of DS20060511, and blood samples were collected from the tail vein at the indicated timepoints. Plasma samples for quantitation of DS20060511 were prepared by centrifugation. Another group of mice received oral administration DS20060511 (30 mg kg^−1) and euthanized 75 min later. The soleus and gastrocnemius muscles, heart, and inguinal WAT were removed and homogenized in water (5 vol.) for quantitation of the drug concentrations. Plasma samples and tissue homogenates were analyzed by LC-MS/MS (Nexera MP System, SHIMADZU, Kyoto, Japan; API4000 System, SCIEX, Framingham, MA). The tissue concentrations of the compound were calculated by assuming the volume of 1 g of tissue is 1 mL. Evaluation of the metabolic stability of the compound to mouse and human cytochrome P450 (CYP) was conducted as follows. The test compound (1 μM) was incubated with pooled liver microsomes (0.1 mg mL^−1) in sodium phosphate buffer (100 mM, pH 7.4) at 37 °C with an NADPH generating system: β-nicotinamide adenine dinucleotide phosphate (β-NADP) 1 mM, D-glucose 6-phosphate (G-6-P) 10 mM, glucose 6-phosphate dehydrogenase (G-6-PDH) 1 U mL^−1, and magnesium chloride 3.3 mM. After 30 min incubation, the reaction was terminated by addition of acetonitrile and samples were analyzed by LC-MS/MS. The results were expressed as the amount of compound remaining (expressed as a percentage), based on the ratio of the relative area to that in the control (without reaction).

[3] = C57BL/6, mouse, po, 1 mg/kg, 1 mg/kg oral
[4] = C57BL/6, mouse, po, 30 mg/kg, 30 mg/kg oral

For `COc1ccc2c(C)c(C(=O)O)ccc2c1C1C2=C(CC(C)(C)CC2=O)OC2=C1C(=O)CC(C)(C)C2` [DS20060511], the “2-DG uptake by isolated soleus and EDL muscles (in words)” value ([1]; GLUT4KO mice) was “no such increase in muscle uptake was observed”, the “2DOG Trn” value ([1]; GLUT4KO, isolated EDL) was 219 nmol/ml and 21.9 µM/min and 229 nmol/ml and 22.9 µM/min and 220 nmol/ml and 22.0 µM/min and 239 nmol/ml and 23.9 µM/min and 247 nmol/ml and 24.7 µM/min and the “IC 2DOG” value ([1]; GLUT4KO, isolated EDL) was 136 nmol/g and 155 nmol/g and 142 nmol/g and 149 nmol/g and 143 nmol/g and 156 nmol/g. For the same compound, the “2-DG uptake Raio” value ([1]; GLUT4KO, isolated EDL) was 1.02 and 1.07 and 1.03 and 1.11 and 1.15, the “2DOG Trn” value ([1]; GLUT4KO, isolated Soleus) was 272 nmol/ml and 27.2 µM/min and 411 nmol/ml and 41.1 µM/min and 553 nmol/ml and 55.3 µM/min and 323 nmol/ml and 32.3 µM/min and 280 nmol/ml and 28.0 µM/min and 475 nmol/ml and 47.5 µM/min and the “IC 2DOG” value ([1]; GLUT4KO, isolated Soleus) was 151 nmol/g and 223 nmol/g and 272 nmol/g and 155 nmol/g and 138 nmol/g and 244 nmol/g. For the same compound, the “2-DG uptake Raio” value ([1]; GLUT4KO, isolated Soleus) was 0.86 and 1.30 and 1.75 and 1.02 and 0.89 and 1.50, the “2-DG uptake by isolated soleus and EDL muscles (in words)” value ([1]; WT mice) was “significantly increased the 2-DG uptake” and the “2DOG Trn” value ([1]; Wildtype, isolated EDL) was 620 nmol/ml and 62.0 µM/min and 476 nmol/ml and 47.6 µM/min and 591 nmol/ml and 59.1 µM/min and 474 nmol/ml and 47.4 µM/min and 359 nmol/ml and 35.9 µM/min and 351 nmol/ml and 35.1 µM/min. The “IC 2DOG” value ([1]; Wildtype, isolated EDL) was 373 nmol/g and 286 nmol/g and 340 nmol/g and 291 nmol/g and 235 nmol/g and 229 nmol/g, the “2-DG uptake Raio” value ([1]; Wildtype, isolated EDL) was 2.47 and 1.90 and 2.36 and 2.12 and 1.61 and 1.57 and the “2DOG Trn” value ([1]; Wildtype, isolated Soleus) was 632 nmol/ml and 63.2 µM/min and 599 nmol/ml and 59.9 µM/min and 719 nmol/ml and 71.9 µM/min and 638 nmol/ml and 63.8 µM/min and 552 nmol/ml and 55.2 µM/min and 582 nmol/ml and 58.2 µM/min. For the same compound, the “IC 2DOG” value ([1]; Wildtype, isolated Soleus) was 343 nmol/g and 302 nmol/g and 363 nmol/g and 327 nmol/g and 293 nmol/g and 321 nmol/g, the “2-DG uptake Raio” value ([1]; Wildtype, isolated Soleus) was 1.76 and 1.67 and 2.01 and 2.02 and 1.75 and 1.84 and the concentration at 0.5 hr [2, 3] was 0.6 µM. The concentration at 1.25 hr [2, 3] was 0.23 µM, the concentration at 2 hr [2, 3] was 0 µM and the concentration at 4 hr [2, 3] was 0 µM. For the same compound, the concentration at 6 hr [2, 3] was 0 µM, the concentration at 4 hr ([2]; C57BL/6, mouse, po, 10 mg/kg, 10 mg/kg oral) was 1.2 µM and the concentration at 0.5 hr [2, 4] was 77.7 µM. The concentration at 1.25 hr [2, 4] was 49.6 µM, the concentration at 2 hr [2, 4] was 35 µM and the maximal plasma concentration ([2]; oral 1 mg kg−1, normal mice) was 0.6 µM. For the same compound, the maximal plasma concentration ([2]; oral 10 mg kg−1) was 16.5 µM, the maximal plasma concentration ([2]; oral 30 mg kg−1) was 71.4 µM and the concentration at 0.5 hr ([2]; 1 mg/kg oral, 1 mg/kg) was 0.5 µM and 0.44 µM and 0.65 µM. For the same compound, the concentration at 1.25 hr ([2]; 1 mg/kg oral, 1 mg/kg) was 0.268 µM and 0.4 µM and 0.221 µM, the concentration at 0.5 hr ([2]; 10 mg/kg oral, 10 mg/kg) was 17.9 µM and 8.3 µM and 19.0 µM and 20.9 µM and the concentration at 1.25 hr ([2]; 10 mg/kg oral, 10 mg/kg) was 3.9 µM and 5.3 µM and 9.9 µM and 11.4 µM. The concentration at 2 hr ([2]; 10 mg/kg oral, 10 mg/kg) was 7.0 µM and 2.1 µM and 5.0 µM and 6.6 µM, the concentration at 4 hr ([2]; 10 mg/kg oral, 10 mg/kg) was 0.6 µM and 0.8 µM and 0.7 µM and the concentration at 6 hr ([2]; 10 mg/kg oral, 10 mg/kg) was 0.285 µM and 0.0 µM and 0.323 µM. For the same compound, the concentration at 0.5 hr ([2]; 30 mg/kg oral, 30 mg/kg) was 74.9 µM and 69.3 µM and 63.8 µM, the concentration at 1.25 hr ([2]; 30 mg/kg oral, 30 mg/kg) was 41.0 µM and 53.8 µM and the concentration at 2 hr ([2]; 30 mg/kg oral, 30 mg/kg) was 28.7 µM and 34.5 µM and 44.1 µM. For the same compound, the concentration at 4 hr ([2]; 30 mg/kg oral, 30 mg/kg) was 6.7 µM and 5.3 µM and 8.2 µM and 10.7 µM and the concentration at 6 hr ([2]; 30 mg/kg oral, 30 mg/kg) was 1.9 µM and 1.8 µM and 1.0 µM and 3.0 µM.
